Data from patent publication US11299487B2, “Compounds and compositions as modulators of TLR signaling” (Neuropore Therapies, Inc., priority 2019, dated 2022).

Experiments:
human TLR2 [1] = target: T1, human TLR2 (Homo sapiens, UniProt O60603); assay: HEK-Blue hTLR2 antagonism assay (SEAP reporter) with agonist Pam3CSK4 (TLR1/2 agonist); assay type: cell-based; settings: Table B; HEK-Blue hTLR2 cells, ~3×EC50 Pam3CSK4, 18 h, SEAP OD 655 nm, 8-point dilutions
T1 construct: host or cells: HEK-Blue hTLR2 (HEK-293)
T1 sequence (O60603 21-784): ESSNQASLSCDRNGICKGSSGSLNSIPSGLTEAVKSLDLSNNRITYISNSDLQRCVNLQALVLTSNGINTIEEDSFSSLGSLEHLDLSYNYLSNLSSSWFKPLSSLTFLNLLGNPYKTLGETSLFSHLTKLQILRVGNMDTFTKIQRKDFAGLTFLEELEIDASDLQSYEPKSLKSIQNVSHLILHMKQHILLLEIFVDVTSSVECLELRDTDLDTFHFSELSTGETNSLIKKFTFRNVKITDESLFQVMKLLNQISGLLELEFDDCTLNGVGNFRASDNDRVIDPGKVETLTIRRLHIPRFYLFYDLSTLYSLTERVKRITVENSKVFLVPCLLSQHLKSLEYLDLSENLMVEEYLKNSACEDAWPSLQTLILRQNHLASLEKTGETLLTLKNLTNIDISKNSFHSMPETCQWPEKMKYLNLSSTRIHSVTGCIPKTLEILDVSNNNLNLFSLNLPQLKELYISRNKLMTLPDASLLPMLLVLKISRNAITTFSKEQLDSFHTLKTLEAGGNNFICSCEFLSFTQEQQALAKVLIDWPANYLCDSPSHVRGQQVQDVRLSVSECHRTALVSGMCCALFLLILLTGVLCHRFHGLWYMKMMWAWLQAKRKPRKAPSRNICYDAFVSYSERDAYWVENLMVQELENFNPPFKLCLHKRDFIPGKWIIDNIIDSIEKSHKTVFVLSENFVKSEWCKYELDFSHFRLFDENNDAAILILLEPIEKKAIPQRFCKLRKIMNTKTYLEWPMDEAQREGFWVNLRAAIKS
Method: (§1) Synthetic diacylated lipoprotein (Pam2CSK4, TLR2/6 agonist) and synthetic triacylated lipoprotein (Pam3CSK4, TLR1/2 agonist) were obtained from InvivoGen and were dissolved in endotoxin-free water to a concentration 1 mg/mL, vortexed until complete solubilization, and stored in aliquots at −20° C. Prior to addition to cells, an aliquot of the dissolved ligand was vortexed shortly and then was diluted in medium to 25 ng/mL Pam2CSK4 or 1000 ng/mL Pam3CSK4.
(§2) Test compounds were solubilized fresh to 10-20 mM stocks in DMSO and sonicated for 5-10 minutes in a water bath sonicator. Serial dilutions were prepared in DMSO, and then diluted in medium. The final concentration of DMSO used in the assay was 1%.
(§3) HEK-Blue hTLR2 reporter cells (InvivoGen) are HEK-293 cells stably expressing both the human TLR2 gene and a secreted embryonic alkaline phosphatase (SEAP) reporter construct downstream of NFκB promotor sites. HEK-Blue hTLR2 reporters were cultured according to manufacturer's protocol using Dulbecco's Modified Eagle Medium (DMEM; Gibco) containing 1× GlutaMax (Gibco), 10% heat-inactivated Fetal Bovine Serum (Gibco), Pen-Strep (50 U/mL penicillin, 50 μg/mL streptomycin, Gibco), 100 μg/mL Normocin (InvivoGen), and the selective antibiotic, 1×HEK-Blue Selection (InvivoGen). Quanti-Blue reagent (InvivoGen) for detection and quantification of secreted alkaline phosphatase was dissolved in 100 mL of endotoxin-free water, warmed to 37° C. for 30 minutes and then filtered using a 0.2 μm membrane.
(§4) On day 1, 50 μL of each test compound dilution in duplicates or a vehicle control was added to each well of a 96-well plate followed by addition of 150 μL of HEK-Blue hTLR2 cell suspension (1×10^5 cells/well) and incubated at 37° C./5% CO2 for 2 h. Next, 50 μL of an approximate 3×EC50 concentration of each agonist (Pam2CSK4 or Pam3CSK4) was added to the wells containing test compounds or the vehicle control. The plates were then incubated at 37° C./5% CO2 for 18 h. For each assay run, non-treated HEK-Blue hTLR2 cells were treated with serial dilutions of agonists to determine EC50 values for the respective run.
(§5) On day 2, secreted alkaline phosphatase (SEAP) activity was detected in cell culture supernatants. In brief, 20 μL was collected from each well and transferred to a 96-well plate. Next, 200 μL of Quanti-Blue detection reagent was added to each well. Plates were incubated at room temperature for 15 min. and SEAP activity was assessed by spectrophotometer OD reading at 655 nm. […] IC50 values were calculated based on 8-point dilutions for each compound.

human TLR2 [2] = target: T1, human TLR2; assay: HEK-Blue hTLR2 antagonism assay (SEAP reporter) with agonist Pam2CSK4 (TLR2/6 agonist); assay type: cell-based; settings: Table B; HEK-Blue hTLR2 cells, ~3×EC50 Pam2CSK4, 18 h, SEAP OD 655 nm, 8-point dilutions
Method: as §1, §2, §3, §4, §5

SMILES | IC50 (human TLR2 [1]) [µM] | IC50 (human TLR2 [2]) [µM]
O=Cc1cc(C(=O)Nc2ccc(N3CCCN(C4CC4)CC3)cc2)cc(F)c1O [Compound B70, N-(4-(4-cyclopropyl-1,4-diazepan-1-yl)phenyl)-3-fluoro-5-formyl-4-hydroxybenzamide] | 6.5 | 11.5
O=Cc1cc(C#Cc2ccc(C(=O)NC3CC3)cc2)cc(F)c1O [Compound B80, N-cyclopropyl-4-((3-fluoro-5-formyl-4-hydroxyphenyl)ethynyl)benzamide] | 35.9 | 15.5
O=Cc1cc(C(=O)Nc2ccc(N3CCN(c4ccccc4)CC3)cc2)cc(F)c1O [Compound B83, 3-fluoro-5-formyl-4-hydroxy-N-(4-(4-phenylpiperazin-1-yl)phenyl)benzamide] | 0.3 | 1
O=Cc1cc(C(=O)Nc2ccc(N3CCOc4ccccc43)cc2)cc(F)c1O [Compound B90, N-(4-(2,3-dihydro-4H-benzo[b][1,4]oxazin-4-yl)phenyl)-3-fluoro-5-formyl-4-hydroxybenzamide] | 1.9 | 2.9
O=Cc1cc(C(=O)Nc2ccc(N3CCCC3)c(C(F)(F)F)c2)cc(F)c1O [Compound B91, 3-fluoro-5-formyl-4-hydroxy-N-(4-(pyrrolidin-1-yl)-3-(trifluoromethyl)phenyl) benzamide] | 1.6 | 2.2
O=Cc1cc(C(=O)Nc2ccc(N3C4CCC3CC4)cc2)cc(F)c1O [Compound B95, N-(4-(7-azabicyclo[2.2.1]heptan-7-yl)phenyl)-3-fluoro-5-formyl-4-hydroxybenzamide] | 2.8 | 3.7
O=Cc1cc(C(=O)Nc2ccc(N3C4CCCC3CC4)cc2)cc(F)c1O [Compound B96, N-(4-(8-azabicyclo[3.2.1]octan-8-yl)phenyl)-3-fluoro-5-formyl-4-hydroxybenzamide] | 1.1 | 1.4

The remaining compounds from weak to strong by IC50 (human TLR2 [1]), led by results:

IC50 (human TLR2 [1]) [µM] | IC50 (human TLR2 [2]) [µM] | SMILES
18.5 | 34.4 | O=Cc1cc(C(=O)Nc2ccc(N3CC4(CC4)CC3=O)cc2)cc(F)c1O [Compound B78, 3-fluoro-5-formyl-4-hydroxy-N-(4-(6-oxo-5-azaspiro[2.4]heptan-5-yl)phenyl)benzamide]
14.3 | 33.9 | O=Cc1cc(C(=O)Nc2ccc(N3CCC(N4CCCC4)CC3)cc2)cc(F)c1O [Compound B84, 3-fluoro-5-formyl-4-hydroxy-N-(4-(4-(pyrrolidin-1-yl)piperidin-1-yl)phenyl)benzamide]
2.4 | 4.6 | O=Cc1cc(C(=O)Nc2cccc(N3CCCCC3)c2)cc(F)c1O [Compound B72, 3-fluoro-5-formyl-4-hydroxy-N-(3-(piperidin-1-yl)phenyl)benzamide]
1.8 | 4.3 | O=Cc1cc(C(=O)Nc2ccc(N3Cc4ccccc4C3)nc2)cc(F)c1O [Compound B86, 3-fluoro-5-formyl-4-hydroxy-N-(6-(isoindolin-2-yl)pyridin-3-yl)benzamide]
1.4 | 4.1 | O=Cc1cc(C(=O)Nc2ccc(N3CCC4(CC4)C3)cc2)cc(F)c1O [Compound B79, N-(4-(5-azaspiro[2.4]heptan-5-yl)phenyl)-3-fluoro-5-formyl-4-hydroxybenzamide]
0.9 | 1 | CN(CC(C)(C)C)c1ccc(NC(=O)c2cc(F)c(O)c(C=O)c2)cc1 [Compound B94, 3-fluoro-5-formyl-4-hydroxy-N-(4-(methyl(neopentyl)amino)phenyl)benzamide]
0.7 | 1.2 | O=Cc1cc(C(=O)Nc2ccc(N3CCc4ccccc4C3)cc2)cc(F)c1O [Compound B82, N-(4-(3,4-dihydroisoquinolin-2(1H)-yl)phenyl)-3-fluoro-5-formyl-4-hydroxybenzamide]
0.5 | 1 | O=Cc1cc(C(=O)Nc2ccc(N3Cc4ccccc4C3)cc2)cc(F)c1O [Compound B81, 3-fluoro-5-formyl-4-hydroxy-N-(4-(isoindolin-2-yl)phenyl)benzamide]
